In this test the target is T1, Dimer of Gag-Pol polyprotein [501-599] (Human immunodeficiency virus 1, UniProt P03367).
T1 construct: 501-599
Description: Protease Inhibition Assay. As to the method:
HIV-1 protease activity was measured by a continuous fluorometric assay using the internally quenched fluorogenic substrate DABCYL-Ser-Gln-Asn-Tyr-Pro-Ile-Val-Gln-EDANS. The proteolytic activity can be monitored by the increase in fluorescence intensity, and the protease products were analyzed by HPLC.

Structures can show the parent of a compound that is named as a salt. A value given as a limit tells only on which side of the number the result lay.

What is called Ki is a dissociation constant, usually derived from enzyme kinetics or from competition with a known ligand. Read a low Ki as a stronger hold on the target. `Cc1ccc(S(=O)(=O)N(CC(C)C)[C@@H](CCCCNC(=O)OC(C)(C)C)C(=O)O)cc1` [(2S)-6-{[(tert-butoxy)carbonyl]amino}-2-[(4-methylbenzene)(2-methylpropyl)sulfonamido]hexanoic acid] showed an inhibition constant Ki greater than 0.25 µM.
The compound `Cc1ccc(S(=O)(=O)N(CC(C)C)[C@@H](CCCCNC(=O)OCC2c3ccccc3-c3ccccc32)C(=O)NO)cc1` [9H-fluoren-9-ylmethyl N-[(5S)-5-(hydroxycarbamoyl)-5-[(4-methylbenzene)(2-methylpropyl)sulfonamido]pentyl]carbamate] had an inhibition constant (Ki) of 0.245 µM.
Turning to `Cc1ccc(S(=O)(=O)N(CC(C)C)[C@@H](CCNC(=O)OCC2c3ccccc3-c3ccccc32)C(=O)O)cc1` [(2S)-4-{[(9H-fluoren-9-ylmethoxy)carbonyl]amino}-2-[(4-methylbenzene)(2-methylpropyl)sulfonamido]butanoic acid], the Ki is greater than 0.25 µM.
Regarding `Cc1ccc(S(=O)(=O)N(CC(C)C)[C@@H](CNC(=O)OCC2c3ccccc3-c3ccccc32)C(=O)O)cc1` [(2S)-3-{[(9H-fluoren-9-ylmethoxy)carbonyl]amino}-2-[(4-methylbenzene)(2-methylpropyl)sulfonamido]propanoic acid], the Ki is greater than 0.25 µM.
Where the note is “pH 4.7, 30 °C”, `Cc1ccc(S(=O)(=O)NCCC[C@H](NC(=O)OCC2c3ccccc3-c3ccccc32)C(=O)O)cc1` [(2S)-2-{[(9H-fluoren-9-ylmethoxy)carbonyl]amino}-5-[(4-methylbenzene)sulfonamido]pentanoic acid] returned an inhibition constant (Ki) of 26.2 µM.
Compound `Cc1ccc(S(=O)(=O)N(CC(C)C)[C@@H](CCCCNC(=O)OCC2c3ccccc3-c3ccccc32)C(N)=O)cc1` [9H-fluoren-9-ylmethyl N-[(5S)-5-carbamoyl-5-[(4-methylbenzene)(2-methylpropyl)sulfonamido]pentyl]carbamate] yielded an inhibition constant (Ki) of 0.107 µM.
In turn, `CC(C)(C)OC(=O)NCCCC[C@H](NC(=O)OCc1ccccc1)C(=O)O` [(2S)-2-{[(benzyloxy)carbonyl]amino}-6-{[(tert-butoxy)carbonyl]amino}hexanoic acid] yielded an inhibitory constant (Ki) (pH 4.7, 30 °C) greater than 100 µM.
`Cc1ccc(S(=O)(=O)N(CC(C)C)[C@@H](CCCCCNC(=O)OCC2c3ccccc3-c3ccccc32)C(=O)O)cc1` [(2S)-7-{[(9H-fluoren-9-ylmethoxy)carbonyl]amino}-2-[(4-methylbenzene)(2-methylpropyl)sulfonamido]heptanoic acid] came in with an inhibition constant Ki greater than 0.25 µM.
Consider `Cc1ccc(S(=O)(=O)N(CC(C)C)[C@@H](CCCCNC(=O)OCC2c3ccccc3-c3ccccc32)C(=N)N)cc1` [9H-fluoren-9-ylmethyl N-[(5S)-5-carbamimidoyl-5-[(4-methylbenzene)(2-methylpropyl)sulfonamido]pentyl]carbamate], for which the Ki came to 0.28 µM.
Compound `Cc1ccc(S(=O)(=O)N(CCCC[C@H](NC(=O)OCC2c3ccccc3-c3ccccc32)C(=O)O)CC(C)C)cc1` [(2S)-2-{[(9H-fluoren-9-ylmethoxy)carbonyl]amino}-6-[(4-methylbenzene)(2-methylpropyl)sulfonamido]hexanoic acid] had an inhibition constant Ki (pH 4.7, 30 °C) of 2 µM.
In the case of `CC(C)CN(C(=O)c1ccccc1)[C@@H](CCCCNC(=O)OCC1c2ccccc2-c2ccccc21)C(=O)O` [(2S)-6-{[(9H-fluoren-9-ylmethoxy)carbonyl]amino}-2-[N-(2-methylpropyl)phenylformamido]hexanoic acid], the inhibition constant Ki is greater than 0.3 µM.
For `Cc1ccc(S(=O)(=O)N(CC(C)C)[C@@H](CCCCNC(=O)OCC2c3ccccc3-c3ccccc32)c2nnn[nH]2)cc1` [9H-fluoren-9-ylmethyl N-[(5S)-5-[(4-methylbenzene)(2-methylpropyl)sulfonamido]-5-(1H-1,2,3,4-tetrazol-5-yl)pentyl]carbamate], the Ki is greater than 0.3 µM.
`COC(=O)[C@H](CCCCNC(=O)OCC1c2ccccc2-c2ccccc21)N(CC(C)C)S(=O)(=O)c1ccc(C)cc1` [methyl (2S)-6-{[(9H-fluoren-9-ylmethoxy)carbonyl]amino}-2-[(4-methylbenzene)(2-methylpropyl)sulfonamido]hexanoate] returned a Ki greater than 0.3 µM.
In the case of `Cc1ccc(S(=O)(=O)N(CC(C)C)[C@@H](CCCCNC(=O)OCC2c3ccccc3-c3ccccc32)C(=O)NN)cc1` [9H-fluoren-9-ylmethyl N-[(5S)-5-(hydrazinecarbonyl)-5-[(4-methylbenzene)(2-methylpropyl)sulfonamido]pentyl]carbamate], affinity was put at a Ki of 0.254 µM.
As to `Cc1ccc(S(=O)(=O)N[C@@H](CCCCNC(=O)OC(C)(C)C)C(=O)O)cc1` [(2S)-6-{[(tert-butoxy)carbonyl]amino}-2-[(4-methylbenzene)sulfonamido]hexanoic acid], the inhibitory constant (Ki) (pH 4.7, 30 °C) is greater than 100 µM.
`Cc1ccc(S(=O)(=O)N(CC(C)C)[C@@H](CCCCNC(=O)C2c3ccccc3-c3ccccc32)C(=O)O)cc1` [(2S)-6-(9H-fluoren-9-ylformamido)-2-[(4-methylbenzene)(2-methylpropyl)sulfonamido]hexanoic acid] returned a Ki of 0.105 µM.
For `Cc1ccc(S(=O)(=O)N(CC(C)C)[C@H](CN)CCCCNC(=O)OCC2c3ccccc3-c3ccccc32)cc1` [9H-fluoren-9-ylmethyl N-[(5S)-6-amino-5-[(4-methylbenzene)(2-methylpropyl)sulfonamido]hexyl]carbamate hydrochloride], the inhibition constant Ki is greater than 0.3 µM.
Compound `Cc1ccc(S(=O)(=O)N(CC(C)C)[C@@H](CCCCNC(=O)OCC2c3ccccc3-c3ccccc32)C(N)=S)cc1` [9H-fluoren-9-ylmethyl N-[(5S)-5-carbamothioyl-5-[(4-methylbenzene)(2-methylpropyl)sulfonamido]pentyl]carbamate] showed a Ki of 0.127 µM. This counts as sub-micromolar.
For the compound `Cc1ccc(S(=O)(=O)N(CC(C)C)[C@H](C=O)CCCCNC(=O)OCC2c3ccccc3-c3ccccc32)cc1` [9H-fluoren-9-ylmethyl N-[(5S)-5-[(4-methylbenzene)(2-methylpropyl)sulfonamido]-6-oxohexyl]carbamate], the inhibition constant (Ki) was greater than 0.3 µM.
With `Cc1ccc(S(=O)(=O)N(CC(C)C)[C@H](CO)CCCCNC(=O)OCC2c3ccccc3-c3ccccc32)cc1` [9H-fluoren-9-ylmethyl N-[(5S)-6-hydroxy-5-[(4-methylbenzene)(2-methylpropyl)sulfonamido]hexyl]carbamate], the affinity, expressed as Ki, was 0.105 µM.
For the setting “pH 4.7, 30 °C”, `Cc1ccc(S(=O)(=O)N(CC(C)C)[C@@H](CCCCNC(=O)OCC2c3ccccc3-c3ccccc32)C(=O)O)cc1` [(2S)-6-{[(9H-fluoren-9-ylmethoxy)carbonyl]amino}-2-[(4-methylbenzene)(2-methylpropyl)sulfonamido]hexanoic acid] returned a Ki of 0.005 µM.
